Reference: patent publication US20230312587A1, “PTERIDINONE COMPOUNDS AND USES THEREOF” (Vertex Pharmaceutical Incorporated, priority 2018, published 2023)
Where two headings read alike, the source gives them in different places.

Key:
[1] = test system: β-catenin-TCF-mediated reporter transcription activity in Colo 205 cells; experiment: Colo 205 reporter assay (TCF/LEF luciferase); type: cell-based; details: five hours after addition of compound
Summary of the method: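 Luciferase signal from a TCF/LEF-driven reporter, stably integrated in Colo 205 colon cancer cells, was measured 5 h after compound addition.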

[2] = test system: Colo-205 cells; experiment: Calcium flux assay (FLIPR Calcium 5); type: cell-based; details: Homo sapiens, COLO 205, 0.6 h, FLIPR Calcium 5, measured over 36 minutes
Protocol: Compounds described herein induced ER stress by causing intracellular calcium flux. Calcium flux was measured in Colo-205 cells using the FLTPR® Calcium 5 Assay Kit according to manufacter's protocol (Molecular Devices, Cat. #R8186) on a FLIPR3 system (Molecular Devices). Calcium flux is measured over 36 minutes. The Colo-205 calcium flux assay data are summarized in Table 47: A<0.6 μM; 0.6 μM≤B<2.0 μM; 2.0 μM≤C<10.0 μM; D≥10.0 μM.

[3] = Homo sapiens, COLO 205, 5 h, Colo 205 TCF/LEF luciferase reporter, read-out: TCF reporter Colo205 IC50
[4] = Homo sapiens, COLO 205, 5 h, Colo 205 cells with stably transfected TCF/LEF luciferase reporter, read-out: TCF reporter Colo205

Cc1nc(N[C@H]2C[C@H](COc3cc(F)c(F)c(F)c3)C2)nc2c1NC(=O)[C@H](C)N2C [Compound 258, (7S)-4,7,8-trimethyl-2-((trans-3-((3,4,5-trifluorophenoxy)methyl)-cyclobutyl)amino)-7,8-dihydropteridin-6(5H)-one]
IC50 [1, 3]: 1000 to 5000 nM
EC50 [2]: 600 to 2000 nM

Cc1nc(NCc2cnn(Cc3ccc(C(F)(F)F)nc3)c2)nc2c1NC(=O)[C@H](C)N2C(C)C [Compound 385, (7S)-8-isopropyl-4,7-dimethyl-2-(((1-((6-(trifluoromethyl)pyridin-3-yl)methyl)-1H-pyrazol-4-yl)methyl)amino)-7,8-dihydropteridin-6(5H)-one]
IC50 [1, 3]: < 300 nM
EC50 [2]: 600 to 2000 nM

CN1C(=O)C(C)(C)N(C)c2nc(NCc3cnn(Cc4cccnc4C(F)(F)F)c3)ncc21 [Compound 237, 5,7,7,8-Tetramethyl-2-(((1-((2-(trifluoromethyl)pyridin-3-yl)methyl)-1H-pyrazol-4-yl)methyl)amino)-7,8-dihydropteridin-6(5H)-one]
IC50 [1, 3]: 300 to 1000 nM
EC50 [2]: 600 to 2000 nM

CC[C@H]1C(=O)Nc2c(C)nc(NCc3cnn(Cc4ccc(C(F)(F)F)nc4)c3)nc2N1C [Compound 186, (7S)-7-ethyl-4,8-dimethyl-2-(((1-((6-(trifluoromethyl)pyridin-3-yl)methyl)-1H-pyrazol-4-yl)methyl)amino)-7,8-dihydropteridin-6(5H)-one]
IC50 [1, 3]: < 300 nM
EC50 [2]: 600 to 2000 nM

Cc1nc(N[C@H]2C[C@@H](Sc3ccc(F)cc3)C2)nc2c1N(C)C(=O)[C@H](C)N2C [Compound 305, (7S)-2-((cis-3-((4-fluorophenyl)thio)cyclobutyl)amino)-4,5,7,8-tetramethyl-7,8-dihydropteridin-6(5H)-one]
IC50 [1, 3]: 300 to 1000 nM
EC50 [2]: 600 to 2000 nM

Cc1nc(N[C@H]2CC[C@H](Oc3ccc(C(F)(F)F)nc3)C2)nc2c1NC(=O)[C@H](C)N2C (single isomer, unassigned) [Compound 376]
IC50 ([1]; Colo 205 TCF/LEF luciferase reporter, read-out: TCF reporter Colo205 IC50): 1000 to 5000 nM
EC50 [2]: 600 to 2000 nM

Cc1nc(N[C@H]2C[C@H](Sc3cc(F)c(F)c(F)c3)C2)nc2c1NC(=O)[C@H](C)N2C [Compound 329, (7S)-4,7,8-trimethyl-2-((trans-3-((3,4,5-trifluorophenyl)thio)-cyclobutyl)amino)-7,8-dihydropteridin-6(5H)-one]
IC50 [1, 3]: < 300 nM
EC50 [2]: 600 to 2000 nM

Cc1nc(NCc2cnn(Cc3ccc(F)cc3)c2)nc2c1NC(=O)[C@H](C)N2C [Compound 4, (7S)-2-(((1-(4-fluorobenzyl)-1H-pyrazol-4-yl)methyl)amino)-4,7,8-trimethyl-7,8-dihydropteridin-6(5H)-one]
IC50 [1, 3]: < 300 nM
EC50 [2]: < 600 nM

Cc1nc(N[C@H]2C[C@@H](COc3ccc(C(F)(F)F)cn3)C2)nc2c1NC(=O)[C@H](C)N2C [Compound 356, (7S)-4,7,8-trimethyl-2-((cis-3-(((5-(trifluoromethyl)pyridin-2-yl)oxy)methyl)cyclobutyl)amino)-7,8-dihydropteridin-6(5H)-one]
IC50 [1, 3]: 300 to 1000 nM
EC50 [2]: 600 to 2000 nM

Cc1nc(N(C)Cc2cnn(Cc3ccc(C(F)(F)F)nc3)c2)nc2c1NC(=O)[C@H](C)N2C [Compound 403, (7S)-4,7,8-trimethyl-2-(methyl((1-((6-(trifluoromethyl)pyridin-3-yl)methyl)-1H-pyrazol-4-yl)methyl)amino)-7,8-dihydropteridin-6(5H)-one]
IC50 [1, 4]: ≥ 5000 nM
EC50 [2]: ≥ 10000 nM

Cc1nc(N[C@H]2C[C@H](Sc3ccc(F)cc3)C2)nc2c1N(C)C(=O)[C@H](C)N2C [Compound 307, (7S)-2-((trans-3-((4-fluorophenyl)thio)cyclobutyl)amino)-4,5,7,8-tetramethyl-7,8-dihydropteridin-6(5H)-one]
IC50 [1, 3]: 1000 to 5000 nM
EC50 [2]: 600 to 2000 nM

Cc1nc(NCc2cnn([C@@H]3C[C@@H]3c3ccc(F)cc3)c2)nc2c1NC(=O)[C@H](C)N2C [Compound 154, (7S)-2-(((1-((1R,2R)-2-(4-fluorophenyl)cyclopropyl)-1H-pyrazol-4-yl)methyl)amino)-4,7,8-trimethyl-7,8-dihydropteridin-6(5H)-one]
IC50 [1, 3]: < 300 nM
EC50 [2]: < 600 nM

Cc1nc(N[C@H]2C[C@H](Oc3ccc(C(F)(F)F)nc3)C2)nc2c1NC(=O)[C@H](C)N2C [Compound 324, (7S)-4,7,8-trimethyl-2-((trans-3-((6-(trifluoromethyl)pyridin-3-yl)oxy)cyclobutyl)amino)-7,8-dihydropteridin-6(5H)-one]
IC50 [1, 3]: < 300 nM
EC50 [2]: < 600 nM

Cc1nc(NCc2cnn(Cc3cc(C(F)(F)F)nn3C)c2)nc2c1NC(=O)[C@H](C)N2C [Compound 160, (7S)-4,7,8-trimethyl-2-(((1-((1-methyl-3-(trifluoromethyl)-1H-pyrazol-5-yl)methyl)-1H-pyrazol-4-yl)methyl)amino)-7,8-dihydropteridin-6(5H)-one]
IC50 [1, 3]: < 300 nM
EC50 [2]: 600 to 2000 nM

Cc1nc(N[C@H]2C[C@@H](Sc3cc(F)c(F)c(F)c3)C2)nc2c1NC(=O)[C@H](C)N2C [Compound 332, (7S)-4,7,8-trimethyl-2-((cis-3-((3,4,5-trifluorophenyl)thio)cyclobutyl)amino)-7,8-dihydropteridin-6(5H)-one]
IC50 [1, 3]: < 300 nM
EC50 [2]: 600 to 2000 nM

Cc1nc(NCc2cnn(Cc3ccc(C(F)(F)F)cc3)c2)nc2c1NC(=O)[C@H](C)N2C [Compound 149, (7S)-4,7,8-trimethyl-2-(((1-(4-(trifluoromethyl)benzyl)-1H-pyrazol-4-yl)methyl)amino)-7,8-dihydropteridin-6(5H)-one]
IC50 [1, 3]: < 300 nM
EC50 [2]: < 600 nM

Cc1nc(NCc2cnn(Cc3ccc(C(F)(F)F)nc3)c2)nc2c1NC(=O)C1(CCC1)N2C [Compound 398, 4′,8′-dimethyl-2′-(((1-((6-(trifluoromethyl)pyridin-3-yl)methyl)-1H-pyrazol-4-yl)methyl)amino)-5′,8′-dihydro-6′H-spiro[cyclobutane-1,7′-pteridin]-6′-one]
IC50 [1, 4]: < 300 nM
EC50 [2]: 600 to 2000 nM

Cc1nc(NCc2ccc(-n3cc(C(F)(F)F)cn3)nc2)nc2c1NC(=O)[C@H](C)N2C [Compound 143, (S)-4,7,8-trimethyl-2-(((6-(4-(trifluoromethyl)-1H-pyrazol-1-yl)pyridin-3-yl)methyl)amino)-7,8-dihydropteridin-6(5H)-one]
IC50 [1, 3]: 300 to 1000 nM
EC50 [2]: 2000 to 10000 nM

Cc1nc(NCc2cnn([C@@H](C)c3ccc(C(F)(F)F)nc3)c2)nc2c1NC(=O)[C@H](C)N2C [Compound 174, (7S)-4,7,8-Trimethyl-2-(((1-((S)-1-(6-(trifluoromethyl)pyridin-3-yl)ethyl)-1H-pyrazol-4-yl)methyl)amino)-7,8-dihydropteridin-6(5H)-one]
IC50 [1, 3]: < 300 nM
EC50 [2]: 600 to 2000 nM

Cc1nc(NCc2cnn(Cc3ccc(F)nc3)c2)nc2c1NC(=O)[C@H](C)N2C [Compound 77]
IC50 [1, 3]: < 300 nM
EC50 [2]: 600 to 2000 nM
